Source: the supplement of paper PMC10307832

Compound: O=C(O)c1ccc2c(c1)nc(Nc1cccc(Cl)c1)c1ccncc12 [Silmitasertib] + CCNC(=O)c1noc(-c2cc(C(C)C)c(O)cc2O)c1-c1ccc(CN2CCOCC2)cc1 [Luminespib] (partner 0.01 µM)
Experiment: relative viability (nuclei count vs DMSO), 5 days (fraction); higher = more cells survive
Summary of the method: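 Nuclei were stained with Hoechst during a one-step fixation (final 0.05% Triton X-100, 1% formaldehyde, 1 ug/ml Hoechst) carried out 5 days after dosing, then counted on 4× images. The cells, lung cancer lines in 1536-well plates, had been dosed by pin tool the day after seeding with one drug alone or a fixed anchor-drug dose plus five library-drug doses (not always all listed) in √10 steps. Relative viability is the nuclei count in treated wells divided by that in vehicle wells, and each value is the median of duplicate plates.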

Cell Line | relative viability (first compound 0.04 µM) | relative viability (first compound 0.4 µM) | relative viability (first compound 1.265 µM) | relative viability (first compound 4 µM)
NCI-H647 | 0.159 | 0.268 | 0.241 | 0.133
NCI-H2009 | 1.06 | 1.1 | 0.971 | 0.604
EPLC-272H | 1.05 | – | 0.18 | 0.181
NCI-H520 | 0.242 | 0.232 | 0.242 | 0.289
NCI-H2405 | 0.75 | 0.507 | 0.757 | 0.71
NCI-H2085 | 0.409 | – | 0.422 | 0.386
NCI-H322M | 0.968 | 0.893 | 0.693 | 0.44
NCI-H1944 | 0.549 | 0.653 | 0.765 | 0.793
LC-2-ad | 1.22 | 1.03 | 1.21 | 1.09
NCI-H358 | 0.39 | – | 0.22 | 0.192
NCI-H2170 | 0.657 | 0.593 | 0.656 | 0.707
A-427 | 1.04 | – | 1.06 | 0.656
NCI-H1666 | 1.04 | 0.955 | 0.708 | 0.634
LOU-NH91 | 0.355 | 0.301 | 0.264 | 0.248
ABC-1 | 0.889 | 0.696 | 0.332 | 0.312
NCI-H1651 | 0.985 | 1.01 | 0.916 | 0.71
201T | 1.03 | 1.03 | 1.12 | 1.28
NCI-H3122 | 0.104 | 0.0852 | 0.0992 | 0.123
NCI-H727 | 0.332 | 0.274 | 0.404 | 0.358
NCI-H441 | 0.369 | – | 0.329 | 0.242
HOP-62 | 0.954 | – | 1.04 | 0.969
RERF-LC-KJ | 1.24 | 1.19 | 1.08 | 0.633
HCC-44 | 1.14 | 1.07 | 1.05 | 1.09

Cell Line | relative viability (first compound 0.04 µM) | relative viability (first compound 0.4 µM) | relative viability (first compound 1.265 µM) | relative viability (first compound 4 µM)
LCLC-103H | 0.909 | 0.707 | 0.751 | 0.548
NCI-H1915 | 0.83 | – | 0.77 | 0.669
ChaGo-K-1 | 0.586 | 0.57 | 0.566 | 0.607
PC-14 | 0.188 | – | 0.14 | 0.179
SK-LU-1 | 0.21 | 0.204 | 0.187 | 0.179
NCI-H1437 | 1.17 | 1.04 | 1.03 | 0.823
NCI-H1734 | 0.185 | 0.209 | 0.186 | 0.202
LK-2 | 0.168 | – | 0.174 | 0.169
HCC-15 | 0.368 | 0.204 | 0.281 | 0.207
NCI-H650 | 0.886 | 0.599 | 0.436 | 0.457
NCI-H2347 | 0.28 | – | 0.48 | 0.236
LXF-289 | 0.592 | – | 0.652 | 0.647
BEN | 0.484 | – | 0.623 | 0.284
NCI-H2023 | 0.746 | 0.535 | 0.683 | 0.684
NCI-H661 | 0.959 | 1.04 | 0.838 | 0.825
NCI-H1355 | 0.776 | – | 0.69 | 0.576
NCI-H1793 | 0.21 | 0.152 | 0.157 | 0.161
COR-L 105 | 0.709 | 0.767 | 0.541 | 0.447
NCI-H2228 | 0.178 | – | 0.145 | 0.135
NCI-H838 | 0.29 | – | 0.338 | 0.217
EMC-BAC-2 | 1.22 | 1.13 | 0.876 | 0.39
LU99A | 0.272 | 0.361 | 0.259 | 0.201
PC-3 [JPC-3] | 0.716 | 0.571 | 0.746 | 0.654

Cell Line | relative viability (first compound 0.04 µM) | relative viability (first compound 0.4 µM) | relative viability (first compound 1.265 µM) | relative viability (first compound 4 µM)
NCI-H596 | 0.948 | 0.843 | 0.918 | 1
LCLC-97TM1 | 0.892 | – | 0.691 | 0.442
NCI-H1993 | 0.874 | 0.697 | 0.621 | 0.617
HARA | 0.738 | 0.724 | 0.396 | 0.646
NCI-H460 | 0.0354 | 0.0304 | 0.0278 | 0.0318
NCI-H1650 | 0.187 | 0.203 | 0.192 | 0.21
EKVX | 0.986 | 0.605 | 0.718 | 0.884
NCI-H1755 | 0.378 | 0.627 | 0.364 | 0.525
NCI-H1395 | 0.635 | 0.562 | 0.539 | 0.713
NCI-H1792 | 0.452 | 0.385 | 0.57 | 0.375
NCI-H2087 | 0.148 | – | 0.179 | 0.142
H3255 | 0.893 | 0.849 | 1.02 | 0.504
SK-MES-1 | 0.821 | 0.801 | 0.397 | 0.213
NCI-H23 | 0.217 | 0.197 | 0.215 | 0.217
HCC-827 | 0.616 | – | 0.524 | 0.355
UMC-11 | 1.2 | 1.1 | 0.861 | 0.613
NCI-H1975 | 0.199 | – | 0.184 | 0.136
NCI-H1563 | 0.56 | 0.486 | – | 0.521
COR-L23 | 0.716 | 0.66 | 0.646 | 0.678
CAL-12T | 0.363 | 0.531 | 0.278 | 0.125
SW 1573 | 0.243 | 0.215 | 0.179 | 0.164
NCI-H2126 | 0.915 | 0.901 | 0.777 | 0.853
